The source of these data is patent US5091409A (priority 1990, dated 1992).

Where a name gives a salt, the structure may show the parent alone. Read-outs that look alike come from different tables or passages of the source.

One series addresses carbonic anhydrase (Homo sapiens, UniProt P00918). Briefly: carbonic anhydrase inhibition (I50) and Ki, methods of Ponticello et al., J. Med. Chem., 30, 591 (1987). The series is classed as biochemical. To be noted: for IC50: carbonic anhydrase inhibition.
Series [1] deals with ocular hypertensive monkey. Briefly: drop in IOP in the ocular hypertensive monkey (Lee et al., Curr. Eye Res., 4,775-781 (1985)). To be noted: 16 hours after treatment. The series is classed as in vivo.
The subject of another series is intraocular pressure. To be noted: cited from earlier work.
Setting [2] is: carbonic anhydrase, main value, read-out: Ki.
Setting [3] is: value in parentheses, hi = more active component of racemic mixture, read-out: Ki (hi).

As usually defined, the IC50 is the midpoint of a concentration-inhibition curve. As to `C=CC[C@H]1C[C@H](NCC)c2cc(S(N)(=O)=O)sc2S1(=O)=O` (relative stereo) [Compound 12, trans-6-Allyl-5,6-dihydro-4-ethylamino-4H-thieno[2,3-b]thiopyran-2-sulfonamide-7,7-dioxide hydrochloride], the concentration for half-maximal inhibition (IC50) at carbonic anhydrase was 230 pM. By Ki is commonly meant the dissociation constant of the complex between target and ligand, obtained from inhibition or displacement. For the compound `CC[C@@H]1C[C@H](NC)c2cc(S(N)(=O)=O)sc2S1(=O)=O` (relative stereo) [Compound 5], the results for the Ki on carbonic anhydrase (setting [2]) and at carbonic anhydrase (setting [3]) were 7100 pM and 2600 pM, respectively. With `C=CC[C@@H]1C[C@H](NCC)c2cc(S(N)(=O)=O)sc2S1(=O)=O` [Compound 13, cis-6-Allyl-5,6-dihydro-4H-4-ethylaminothieno[2,3-b]thiopyran-2-sulfonamide-7,7-dioxide hydrochloride], the “drop in IOP” value in series [1] is 9.8 mmHg. This compound yielded an IC50 on carbonic anhydrase of 210 pM. The Ki at carbonic anhydrase (setting [2]) was 400 pM. Turning to `CNC(=O)Oc1ccc2c(c1)[C@]1(C)CCN(C)[C@@H]1N2C` [physostigmine], the “effect on intraocular pressure” value with intraocular pressure (background statement) was “reduce intraocular pressure”. `CCN[C@H]1C[C@@H](CC)S(=O)(=O)c2sc(S(N)(=O)=O)cc21` [Compound 11] displayed an IC50 against carbonic anhydrase of 800 pM. In addition, at carbonic anhydrase (setting [2]), the Ki was 1000 pM. As for `CCC[C@H]1C[C@H](NC)c2cc(S(N)(=O)=O)sc2S1(=O)=O` (relative stereo) [Compound 6], the results for the Ki on carbonic anhydrase (setting [2]) and on carbonic anhydrase (setting [3]) were 2100 pM and 850 pM, respectively. With `CCN[C@H]1C[C@H](C)S(=O)(=O)c2sc(S(N)(=O)=O)cc21` [Compound 8], the “drop in IOP” value in series [1] is listed as 5.6 mmHg. For the compound `CC(C)(C)NC[C@H](O)COc1nsnc1N1CCOCC1` [(S)-1-tert-Butylamino[(4-morpholino-1,2,5-thiadiazol-3-yl)oxy]-2-propanol], in the series on intraocular pressure (advantage over many other β-adrenergic blocking agents, background statement), the local anesthetic properties entry is reported as “devoid of local anesthetic properties”. The unwanted side effects result in the series with intraocular pressure is “devoid of many unwanted side effects associated with pilocarpine”. Take `CC[C@H]1C[C@H](NC)c2cc(S(N)(=O)=O)sc2S1(=O)=O` (relative stereo) [Compound 4]: the Ki is 3600 pM on carbonic anhydrase (setting [2]) and 1800 pM at carbonic anhydrase (setting [3]). `CCN[C@H]1C[C@H](CC)S(=O)(=O)c2sc(S(N)(=O)=O)cc21` [Compound 10]: on carbonic anhydrase, 500 pM corresponded to half-maximal inhibition (IC50). Moreover, the inhibitory constant (Ki) on carbonic anhydrase (setting [2]) was determined as 300 pM. As for `CCC[C@@H]1C[C@H](NC)c2cc(S(N)(=O)=O)sc2S1(=O)=O` (relative stereo) [Compound 7], the Ki on carbonic anhydrase (setting [2]) stood at 2800 pM; at carbonic anhydrase (setting [3]), 640 pM.

For `CCN[C@H]1C[C@@H](CC(C)C)S(=O)(=O)c2sc(S(N)(=O)=O)cc21` (relative stereo) [Compound 14], the inhibitory constant (Ki) at carbonic anhydrase (setting [2]) is 2600 pM; at carbonic anhydrase (setting [3]) it was 130 pM. Compound `CCCN[C@H]1C[C@H](CCC)S(=O)(=O)c2sc(S(N)(=O)=O)cc21` [Compound 3] displayed an IC50 against carbonic anhydrase of 150 pM. Further, the inhibition constant (Ki) at carbonic anhydrase (setting [2]) turned out to be 230 pM. Take `CC[C@@H]1C(=O)OC[C@@H]1Cc1cncn1C` [pilocarpine]: in the series on intraocular pressure (background statement), the “effect on intraocular pressure” value is listed as “reduce intraocular pressure”.

Regarding `CCC[C@H]1C[C@H](NCC)c2cc(S(N)(=O)=O)sc2S1(=O)=O.Cl` [Compound 1, (S,S) (-)5,6-Dihydro-4-ethylamino-6-(n-propyl)-4H-thieno[2,3-b]thiopyran-2-sulfonamide-7,7-dioxide hydrochloride], the “drop in IOP” value in series [1] is 11.3 mmHg.
